Data published in ChEMBL document CHEMBL5034021, “Monomeric, Dimeric, and Trimeric Tropane Alkaloids from Pellacalyx saccardianus” (J Nat Prod, 2021).
Active and inactive are the calls of the source. The rule behind the calls is not given here.

What was measured:
Trachea [1] = assay: Myorelaxant effect in Sprague-Dawley rat tracheal ring assessed as relaxation of carbachol-induced smooth muscle contraction by organ bath assay; type: functional
Trachea [2] = assay: Myorelaxant effect in Sprague-Dawley rat tracheal ring assessed as […] relaxation of carbachol-induced smooth muscle contraction by organ bath assay; type: functional, tissue-based
ASPC1 = assay: Cytotoxicity against human ASPC1 assessed as cell viability measured for 72 hrs by cell titer glo luminescent assay; type: functional, cell-based; conditions: for IC50: ASPC1, 72 h
BXPC-3 = assay: Cytotoxicity against human BXPC-3 assessed as cell viability measured for 72 hrs by cell titer glo luminescent assay; type: functional, cell-based; conditions: for IC50: BXPC-3, 72 h
PANC-1 = assay: Cytotoxicity against human PANC-1 assessed as cell viability measured for 72 hrs by cell titer glo luminescent assay; type: functional, cell-based; conditions: for IC50: PANC-1, 72 h
SW1990 = assay: Cytotoxicity against human SW1990 assessed as cell viability measured for 72 hrs by cell titer glo luminescent assay; type: functional, cell-based; conditions: for IC50: SW1990, 72 h
MRC5 = assay: Cytotoxicity against human MRC5 assessed as cell viability measured for 72 hrs by cell titer glo luminescent assay; type: cell-based; conditions: for IC50: Homo sapiens, MRC5, 72 h

| Structure (SMILES) | Emax (Trachea [1]) | EC50 (Trachea [2]) | IC50 (ASPC1) | IC50 (BXPC-3) | IC50 (PANC-1) | IC50 (SW1990) | IC50 (MRC5) | Activity (ASPC1) | Activity (BXPC-3) | Activity (PANC-1) | Activity (SW1990) | Activity (MRC5; human, mrc5, 72 h, time 72 hrs) |
| --- | --- | --- | --- | --- | --- | --- | --- | --- | --- | --- | --- | --- |
| CN1[C@@H]2CC[C@H]1C[C@@H](OC(=O)C(CO)c1ccccc1)C2 (mixture of isomers) [ATROPINE] | 112% | 0.00098 µM | – | – | – | – | – | – | – | – | – | – |
| O=CN1C2CCC1CC(OC(=O)c1ccccc1)C2 (configuration not stated) | 97% | 3.61 µM | – | – | – | – | – | – | – | – | – | – |
| O=C(/C=C/c1ccccc1)OC1CC2CCC(C1)N2C(CC(=O)OC1CC2CCC(C1)N2C(CC(=O)OC1CC2CCC(C1)N2)c1ccccc1)c1ccccc1 (racemic) | – | – | 3.4 µM | 2.2 µM | 1.1 µM | 5.2 µM | 4.2 µM | – | – | – | – | – |
| O=C(/C=C/c1ccccc1)OC1CC2CCC(C1)N2 (configuration not stated) | 82.5% | 0.44 µM | – | – | – | – | – | inactive | inactive | inactive | inactive | Non-Toxic |
| O=C(/C=C/c1ccccc1)OC1CC2CCC(C1)N2C(CC(=O)OC1CC2CCC(C1)N2)c1ccccc1 (racemic) | 71.9% | 10.4 µM | 6 µM | 4.6 µM | 10.6 µM | > 10 µM | 9.8 µM | – | – | – | – | – |
| O=C(/C=C/c1ccccc1)OC1CC2CCC(C1)N2[C@H](CC(=O)OC1CC2CCC(C1)N2)c1ccccc1 (some centres not stated) | – | – | 7.7 µM | 6.6 µM | 9.9 µM | > 10 µM | > 10 µM | – | – | – | – | – |
| O=C(OC1CC2CCC(C1)N2)c1ccccc1 (configuration not stated) | 101% | 7.83 µM | – | – | – | – | – | – | – | – | – | – |
| O=C(/C=C/c1ccccc1)OC1CC2CCC(C1)N2C(=O)CCc1ccc(O)cc1 (configuration not stated) | 106% | 24.2 µM | – | – | – | – | – | – | – | – | – | – |
| O=C(/C=C/c1ccccc1)OC1CC2CCC(C1)N2[C@@H](CC(=O)OC1CC2CCC(C1)N2)c1ccccc1 (some centres not stated) | – | – | 5.8 µM | 5.5 µM | 10.4 µM | > 10 µM | 8.4 µM | – | – | – | – | – |
| Nc1ccn([C@@H]2O[C@H](CO)[C@@H](O)C2(F)F)c(=O)n1 [GEMCITABINE] | – | – | 29.1 µM | 25.9 µM | 30 µM | 25.4 µM | 35.1 µM | – | – | – | – | – |
